Where two headings read alike, the source gives them in different places. *1 amine or outer side, *2 acyl side, *3 side chain or, on linkers, in order; H or OH if unused. Where a SMILES comes first, the peptide text is derived from it. Bridges are numbered along the chain shown (N, C = ends). [ ]: non-standard residue; d: D form. The star is where a group is joined. hPhe(3,5-F2-4-CF3) = N[C@@H](CCc1cc(F)c(C(F)(F)F)c(F)c1)C(=O)O; hPhe(3-Cl-4-CF3) = N[C@@H](CCc1ccc(C(F)(F)F)c(Cl)c1)C(=O)O; NPrPhe(4-CF3) = CCCN[C@@H](Cc1ccc(C(F)(F)F)cc1)C(=O)O; NMePhe(4-CF3) = CN[C@@H](Cc1ccc(C(F)(F)F)cc1)C(=O)O; X18 = Cc1ccc(C[C@@H](C(=O)[*:2])N(CC(C)C)[*:1])cc1; NPrPhe(4-Me) = CCCN[C@@H](Cc1ccc(C)cc1)C(=O)O; NMeGly(cPent) = CN[C@H](C(=O)O)C1CCCC1; Hyp = O=C(O)[C@@H]1C[C@@H](O)CN1; NMeD = CN[C@@H](CC(=O)O)C(=O)O; NMeL = CN[C@@H](CC(C)C)C(=O)O; αMeS = C[C@](N)(CO)C(=O)O; Morpholide = C1CN(*)CCO1; Ac5c = NC1(C(=O)O)CCCC1; Ac4c = NC1(C(=O)O)CCC1; Sar = CNCC(=O)O; tBu = CC(C)(C)*
Key:
[1] = molecular target: GDP-bound HRAS wild-type protein (Homo sapiens, UniProt P01112); assay: Binding to HRAS by surface plasmon resonance (SPR), Single Cycle Kinetics; settings: SPR, GDP-bound HRAS wild-type protein vs GDP-bound KRAS wild-type protein
Chain of GDP-bound HRAS wild-type protein (P01112 whole entry): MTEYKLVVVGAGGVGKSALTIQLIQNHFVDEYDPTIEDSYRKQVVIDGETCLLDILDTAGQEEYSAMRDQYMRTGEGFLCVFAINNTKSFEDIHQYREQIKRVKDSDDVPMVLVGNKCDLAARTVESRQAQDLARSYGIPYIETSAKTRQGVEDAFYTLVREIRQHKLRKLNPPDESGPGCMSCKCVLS

[2] = molecular target: GDP-bound NRAS wild-type protein (Homo sapiens, UniProt P01111); assay: Binding to NRAS by surface plasmon resonance (SPR), Single Cycle Kinetics; settings: SPR, GDP-bound NRAS wild-type protein vs GDP-bound KRAS wild-type protein
Chain of GDP-bound NRAS wild-type protein (P01111 whole entry): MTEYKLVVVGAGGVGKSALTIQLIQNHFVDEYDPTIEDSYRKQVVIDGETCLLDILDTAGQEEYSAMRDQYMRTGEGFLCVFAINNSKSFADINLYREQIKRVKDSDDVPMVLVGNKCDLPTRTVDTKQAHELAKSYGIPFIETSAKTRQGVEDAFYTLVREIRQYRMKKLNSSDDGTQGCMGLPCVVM

[3] = molecular target: GDP-bound KRAS wild-type protein (Homo sapiens, UniProt P01116); assay: Binding to KRAS by surface plasmon resonance (SPR), Single Cycle Kinetics; settings: GDP-bound KRAS wild-type protein, read-out: KRAS KD
Chain of GDP-bound KRAS wild-type protein (P01116 whole entry): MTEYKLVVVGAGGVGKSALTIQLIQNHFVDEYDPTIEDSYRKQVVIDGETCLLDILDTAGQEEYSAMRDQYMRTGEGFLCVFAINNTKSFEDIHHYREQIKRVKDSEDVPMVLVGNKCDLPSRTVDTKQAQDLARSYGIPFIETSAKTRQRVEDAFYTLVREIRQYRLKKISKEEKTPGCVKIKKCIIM

[4] = SPR Single Cycle Kinetics, 1:1 binding model

| Kd [3, 4] | Kd ([3]; SPR, Single Cycle Kinetics) | SMILES | HRAS/KRAS (ratio of KD value for HRAS to KD value for KRAS) [1] | NRAS/KRAS (ratio of KD value for NRAS to KD value for KRAS) [2] | also measured |
| --- | --- | --- | --- | --- | --- |
| 2.9 nM | – | CC[C@H](C)[C@@H]1NC(=O)[C@H](CC(C)C)N(C)C(=O)C[C@@H](C(=O)N2CCOCC2)N(C)C(=O)[C@H](C2CCCC2)N(C)C(=O)C2(CCCC2)NC(=O)[C@@H]2CCCN2C(=O)[C@H](CCc2ccc(C(F)(F)F)c(Cl)c2)NC(=O)CN(C)C(=O)[C@H](Cc2ccc(C)cc2)N(CC(C)C)C(=O)CN(C)C(=O)CN(C)C1=O [PP0063] ([NMeL]I[Sar][Sar][X18][Sar][hPhe(3-Cl-4-CF3)]P[Ac5c][NMeGly(cPent)][NMeD]-Morpholide; lactam N-11) | C (A compound having a KD ratio of 0.1 or more and less than 3 is denoted as C) | C (A compound having a KD ratio of 0.1 or more and less than 3 is denoted as C) | – |
| – | 0.07 nM | CCO[C@@H]1C[C@H]2C(=O)NC3(CCC3)C(=O)N(C)[C@@H](C3CCCC3)C(=O)N(C)[C@H](C(=O)N(C)C)CC(=O)N(C)[C@@H](CC3CCCCC3)C(=O)N[C@@H]([C@@H](C)CC)C(=O)N(C)CC(=O)N(C)[C@H]3C/C=C\CCN(C3=O)[C@@H](Cc3ccc(C(F)(F)F)cc3)C(=O)N(C)CC(=O)N[C@@H](CCc3cc(F)c(C(F)(F)F)c(F)c3)C(=O)N2C1 [PP1125, (2S,8S,12R,14S,20S,23S,27S,30S,36S,38Z)-27-(cyclohexylmethyl)-20-cyclopentyl-8-[2-[3,5-difluoro-4-(trifluoromethyl)phenyl]ethyl]-12-ethoxy-N,N,4,19,22,26,32,35-octamethyl-30-[(1S)-1-methylpropyl]-3,6,9,15,18,21,25,28,31,34,42-undecaoxo-2-[[4-(trifluoromethyl)phenyl]methyl]spiro[1,4,7,10,16,19,22,26,29,32,35-undecazatricyclo[34.5.1.0^10,14]dotetracont-38-ene-17,1′-cyclobutane]-23-carboxamide] | A (a compound having 10 or more and less than 20 is denoted as A) | A (a compound having 10 or more and less than 20 is denoted as A) | – |
| – | – | CCO[C@@H]1C[C@H]2C(=O)NC3(CCC3)C(=O)N(C)[C@@H](C(CC)CC)C(=O)N(C)C(C(C)C)CC(=O)N(C)[C@@H](CC3CC3)C(=O)N[C@@H]([C@@H](C)CC)C(=O)N(C)CC(=O)N(C)[C@H]3C/C=C\CCN(C3=O)[C@@H](Cc3ccc(C(F)(F)F)cc3)C(=O)N(C)CC(=O)N[C@@H](CCc3cc(F)c(C(F)(F)F)c(F)c3)C(=O)N2C1 (stereo partly drawn) [PP1595] | – | – | HRAS/KRAS (ratio of KD value for HRAS to KD value for KRAS) ([1]; KD ratio class): A (a compound having 10 or more and less than 20 is denoted as A); NRAS/KRAS (ratio of KD value for NRAS to KD value for KRAS) ([2]; KD ratio class): A (a compound having 10 or more and less than 20 is denoted as A); Kd ([3]; SPR, Single Cycle Kinetics, 1:1 binding model): 2.3 nM |
| 11 nM | – | CC[C@H](C)[C@@H]1NC(=O)[C@H](CC(C)C)N(C)C(=O)C[C@@H](C(=O)N(C)C)N(C)C(=O)[C@H](C2CCCC2)N(C)C(=O)C2(CCCC2)NC(=O)[C@@H]2CCCN2C(=O)[C@H](CCc2cc(F)c(C(F)(F)F)c(F)c2)NC(=O)CN(C)C(=O)[C@H](Cc2ccc(C(F)(F)F)cc2)N2CCCCC[C@@H](C2=O)N(C)C(=O)CN(CC)C1=O [PP0514] | – | – | HRAS/KRAS (ratio of KD value with respect to HRAS to KD value with respect to KRAS) [1]: B (a compound having 3 or more and less than 10 is denoted as B); NRAS/KRAS (ratio of KD value with respect to NRAS to KD value with respect to KRAS) [2]: B (a compound having 3 or more and less than 10 is denoted as B) |
| – | 3 nM | CCO[C@@H]1C[C@H]2C(=O)NC3(CCCC3)C(=O)N(C)[C@@H](C3CCCC3)C(=O)N(C)[C@H](C(=O)N3CCOCC3)CC(=O)N(C)[C@@H](CC(C)C)C(=O)N[C@@H]([C@@H](C)CC)C(=O)N(C)CC(=O)N(C)[C@H]3CC(C)=CCN(C3=O)[C@@H](Cc3ccc(C(F)(F)F)cc3)C(=O)N(C)CC(=O)N[C@@H](CCc3cc(F)c(C(F)(F)F)c(F)c3)C(=O)N2C1 [PP1038] | C (A compound having a KD ratio of 0.1 or more and less than 3 is denoted as C) | C (A compound having a KD ratio of 0.1 or more and less than 3 is denoted as C) | – |
| 0.68 nM | – | CCCN1C(=O)CN(C)C(=O)CN(C)C(=O)[C@H]([C@@H](C)CC)NC(=O)[C@H](CC(C)C)N(C)C(=O)C[C@@H](C(=O)N(C)C)N(C)C(=O)[C@H](C2CCCC2)N(C)C(=O)[C@](C)(COC(C)(C)C)NC(=O)[C@@H]2CCCN2C(=O)[C@H](CCc2cc(F)c(C(F)(F)F)c(F)c2)NC(=O)CN(C)C(=O)[C@@H]1Cc1ccc(C(F)(F)F)cc1 [PP0743] ([NMeL]I[Sar][Sar][NPrPhe(4-CF3)][Sar][hPhe(3,5-F2-4-CF3)]P[αMeS](tBu)[NMeGly(cPent)][NMeD]-NMe2; lactam N-11) | – | – | HRAS/KRAS (ratio of KD value with respect to HRAS to KD value with respect to KRAS) [1]: C (A compound having a KD ratio of 0.1 or more and less than 3 is denoted as C); NRAS/KRAS (ratio of KD value with respect to NRAS to KD value with respect to KRAS) [2]: B (a compound having 3 or more and less than 10 is denoted as B) |
| 0.064 nM | – | CC[C@H](C)[C@@H]1NC(=O)[C@H](CC(C)C)N(C)C(=O)C[C@@H](C(=O)N2CCOCC2)N(C)C(=O)[C@H](C2CCCC2)N(C)C(=O)C2(CCCC2)NC(=O)[C@@H]2CCCN2C(=O)[C@H](CCc2ccc(C(F)(F)F)c(Cl)c2)NC(=O)CN(C)C(=O)[C@H](Cc2ccc(C(F)(F)F)cc2)N(C)C(=O)CN(C)C(=O)CN(C)C1=O [PP0076] ([NMeL]I[Sar][Sar][NMePhe(4-CF3)][Sar][hPhe(3-Cl-4-CF3)]P[Ac5c][NMeGly(cPent)][NMeD]-Morpholide; lactam N-11) | C (A compound having a KD ratio of 0.1 or more and less than 3 is denoted as C) | C (A compound having a KD ratio of 0.1 or more and less than 3 is denoted as C) | – |
| – | 0.67 nM | CCO[C@@H]1C[C@H]2C(=O)NC3(CC(C)(C)C3)C(=O)N(C)[C@@H](C(CC)CC)C(=O)N(C)[C@H](C(=O)N3CCCC3)CC(=O)N(C)[C@@H](C)C(=O)N[C@@H]([C@@H](C)CC)C(=O)N(C)CC(=O)N(C)[C@H]3C/C=C\CCN(C3=O)[C@@H](Cc3ccc(C)cc3)C(=O)N(C)CC(=O)N[C@@H](CCc3ccc(C(F)(F)F)c(Cl)c3)C(=O)N2C1 [PP2152] | A (a compound having 10 or more and less than 20 is denoted as A) | AA (a compound having 20 or more is denoted as AA) | – |
| 0.027 nM | – | CC[C@H](C)[C@@H]1NC(=O)[C@H](CC(C)C)N(C)C(=O)C[C@@H](C(=O)N2CCOCC2)N(C)C(=O)[C@H](C2CCCC2)N(C)C(=O)C2(CCC2)NC(=O)[C@]2(C)CCCN2C(=O)[C@H](CCc2cc(F)c(C(F)(F)F)c(F)c2)NC(=O)CN(C)C(=O)[C@H](Cc2ccc(C(F)(F)F)cc2)N2CCCC[C@@H](C2=O)N(C)C(=O)CN(C)C1=O [PP0808] | – | – | HRAS/KRAS (ratio of KD value with respect to HRAS to KD value with respect to KRAS) [1]: B (a compound having 3 or more and less than 10 is denoted as B); NRAS/KRAS (ratio of KD value with respect to NRAS to KD value with respect to KRAS) [2]: B (a compound having 3 or more and less than 10 is denoted as B) |
| 0.15 nM | – | CCCN1C(=O)CN(C)C(=O)CN(C)C(=O)[C@H]([C@@H](C)CC)NC(=O)[C@H](CC(C)C)N(C)C(=O)C[C@@H](C(=O)N2CCOCC2)N(C)C(=O)[C@H](C2CCCC2)N(C)C(=O)C2(CCCC2)NC(=O)[C@@H]2CCCN2C(=O)[C@H](CCc2ccc(C(F)(F)F)c(Cl)c2)NC(=O)CN(C)C(=O)[C@@H]1Cc1ccc(C)cc1 [PP0059] ([NMeL]I[Sar][Sar][NPrPhe(4-Me)][Sar][hPhe(3-Cl-4-CF3)]P[Ac5c][NMeGly(cPent)][NMeD]-Morpholide; lactam N-11) | C (A compound having a KD ratio of 0.1 or more and less than 3 is denoted as C) | B (a compound having 3 or more and less than 10 is denoted as B) | – |
| – | 1.1 nM | CC[C@H](C)[C@@H]1NC(=O)[C@H](COC)N(C)C(=O)C[C@@H](C(=O)N2CCOCC2)N(C)C(=O)[C@H](C2CCCC2)N(C)C(=O)C2(CCC2)NC(=O)[C@@H]2CCCN2C(=O)[C@H](CCc2cc(F)c(C(F)(F)F)c(F)c2)NC(=O)CN(C)C(=O)[C@H](Cc2ccc(C(F)(F)F)cc2)N2CCCCC[C@@H](C2=O)N(C)C(=O)[C@@H]2CCN2C1=O [PP0865] | B (a compound having 3 or more and less than 10 is denoted as B) | B (a compound having 3 or more and less than 10 is denoted as B) | – |
| – | 0.25 nM | CCO[C@@H]1C[C@H]2C(=O)NC3(CCC3)C(=O)N(C)[C@@H](C3CCCC3)C(=O)N(C)[C@H](C(=O)N(C)C)CC(=O)N(C)[C@@H](CC)C(=O)N[C@@H]([C@@H](C)CC)C(=O)N(CC)CC(=O)N(C)[C@H]3C/C=C\CCN(C3=O)[C@@H](Cc3ccc(C(F)(F)F)cc3)C(=O)N(C)CC(=O)N[C@@H](CCc3cc(F)c(C(F)(F)F)c(F)c3)C(=O)N2C1 [PP1052] | A (a compound having 10 or more and less than 20 is denoted as A) | A (a compound having 10 or more and less than 20 is denoted as A) | – |
| 0.41 nM | – | CCCN1C(=O)CN(C)C(=O)CN(C)C(=O)[C@H]([C@@H](C)CC)NC(=O)[C@H](CC(C)C)N(C)C(=O)C[C@@H](C(=O)N2CCOCC2)NC(=O)[C@H](C2CCCC2)N(C)C(=O)C2(CCC2)NC(=O)[C@@H]2C[C@@H](OCC)CN2C(=O)[C@H](CCc2ccc(C(F)(F)F)c(Cl)c2)NC(=O)CN(C)C(=O)[C@@H]1Cc1ccc(C(F)(F)F)cc1 [PP0324] ([NMeL]I[Sar][Sar][NPrPhe(4-CF3)][Sar][hPhe(3-Cl-4-CF3)][Hyp](Et)[Ac4c][NMeGly(cPent)]D-Morpholide; lactam N-11) | B (a compound having 3 or more and less than 10 is denoted as B) | B (a compound having 3 or more and less than 10 is denoted as B) | – |

From patent US20240158446A1, “CYCLIC COMPOUND HAVING SELECTIVE INHIBITORY ACTION ON KRAS OVER HRAS AND NRAS” (CHUGAI SEIYAKU KABUSHIKI KAISHA, priority 2021, published 2024)
